According to patent US20120010075A1 (priority 2009, published 2012):
Where two headings read alike, the source gives them in different places.

Assays:
[1] = test system: Phytophthora infestans; type: in vivo, Phytophthora infestans on tomato; conditions: applied 24 h before inoculation, assessed 7 days after inoculation
[2] = test system: Leptosphaeria nodorum (LEPTNO); experiment: In vitro fungitoxicity of hydrazones with and without copper towards Leptosphaeria nodorum (Example 26); type: cell-based; conditions: for inhibition of growth at 0.05 µg/mL: Parastagonospora nodorum, 72 h, read-out: LEPTNO % Inhn. Minus Copper Observed
[3] = hydrazone 50 ppm + 50 μM CuCl2.2H2O, tomato
[4] = compound 0.05 μg/mL, copper-minus medium, 72 h at 25° C.
[5] = compound 0.05 μg/mL, copper-plus medium (CuCl2.2H2O), 72 h at 25° C.
[6] = hydrazone 50 ppm with 50 μM CuCl2.2H2O, tomato late blight
[7] = copper-minus medium, test compound Concn. 0.05 μg/mL, 72 h at 25° C.
[8] = copper-plus medium (CuCl2 10 μM), test compound Concn. 0.05 μg/mL, 72 h at 25° C.

| SMILES | TLB % Control [1, 3] | inhibition of growth at 0.05 µg/mL [2, 4] | LEPTNO % Inhn. Plus Copper Observed [2, 5] | TLB % Control [1, 6] | inhibition of growth at 0.05 µg/mL [2, 7] | LEPTNO % Inhn. Plus Copper Observed [2, 8] | inhibition of growth at 0.05 µg/mL [2] |
| --- | --- | --- | --- | --- | --- | --- | --- |
| O=C(N/N=C/c1cc(Br)ccc1O)c1ccccc1Oc1ccccc1 [Example 19] | 25.0% | 2.9% | 88.8% |  |  |  |  |
| O=C(N/N=C/c1cc(Cl)cc(Cl)c1O)c1ccccc1Cl [Example 93] | 77.2% | 6% | 95.2% |  |  |  |  |
| O=C(N/N=C/c1cc(Br)cc(Br)c1O)c1ccc(Br)cc1 [Example 118] | 85.3% | 10.6% | 98.3% |  |  |  |  |
| Cc1ccc(C(=O)N/N=C/c2cc(Br)ccc2O)cc1 [Example 179] | 35.1% | 18.7% | 98.0% |  |  |  |  |
| COc1cc(Br)cc(/C=N/NC(=O)c2ccccc2)c1O [Example 156] | 51.5% | 7.4% | 94.8% |  |  |  |  |
| O=C(N/N=C/c1cc(Br)ccc1O)c1ccc(Cl)cc1 [Example 171] | 15.8% | 4% | 98.3% |  |  |  |  |
| COc1ccc(C(=O)N/N=C/c2cc(Cl)cc(Cl)c2O)cc1 [Example 75] | 15.8% | 0% | 98.4% |  |  |  |  |
| Cc1cccc(C(=O)N/N=C/c2cc(Cl)cc(Cl)c2O)c1 [Example 95] | 81.2% | 14.1% | 94.0% |  |  |  |  |
| COc1cccc(/C=N/NC(=O)c2ccccc2)c1O [Example 149] | 22.1% | 0% | 97.1% |  |  |  |  |
| Cc1ccc(C(=O)N/N=C/c2cc(Cl)ccc2O)cc1 [Example 180] | 43.9% | 10.8% | 95.1% |  |  |  |  |
| C/C(=N\NC(=O)c1ccc(C(C)C)cc1)c1ccccc1O [Example 40] | 64.9% | 0% | 94.8% |  |  |  |  |
| Cc1ccc([N+](=O)[O-])c(C(=O)N/N=C/c2cc(Cl)cc(Cl)c2O)c1 [Example 9] | 67.3% | 0% | 93.6% |  |  |  |  |
| C/C(=N\NC(=O)c1ccccc1C)c1ccccc1O [Example 66] | 51.0% | 0.1% | 97.4% |  |  |  |  |
| O=C(N/N=C/c1cc(Cl)cc(Cl)c1O)c1ccc(Br)cc1 [Example 80] | 91.5% | 0% | 98.4% |  |  |  |  |
| O=C(N/N=C/c1cc(Br)cc([N+](=O)[O-])c1O)c1ccccc1 [Example 144] | 87.0% | 0% | 98.5% |  |  |  |  |
| O=C(N/N=C/c1cc(Cl)cc(Br)c1O)c1cccc(Br)c1 [Example 163] | 87.7% | 5.9% | 98.0% |  |  |  |  |
| O=C(N/N=C/c1cc(Br)ccc1O)c1ccccc1Br [Example 160] | 65.5% | 3.4% | 96.1% |  |  |  |  |
| COc1ccc(C(=O)N/N=C(\C)c2ccccc2O)cc1 [Example 214] | 60.0% | 7% | 98.0% |  |  |  |  |
| O=C(N/N=C/c1cc(Cl)cc(Cl)c1O)c1ccccc1Oc1ccccc1 [Example 90] | 54.6% | 9.5% | 96.4% |  |  |  |  |

| SMILES | TLB % Control [1, 3] | inhibition of growth at 0.05 µg/mL [2, 4] | LEPTNO % Inhn. Plus Copper Observed [2, 5] | TLB % Control [1, 6] | inhibition of growth at 0.05 µg/mL [2, 7] | LEPTNO % Inhn. Plus Copper Observed [2, 8] | inhibition of growth at 0.05 µg/mL [2] |
| --- | --- | --- | --- | --- | --- | --- | --- |
| O=C(N/N=C/c1cc(Cl)ccc1O)c1ccc(Br)cc1 [Example 191] | 29.8% | 15.4% | 98.1% |  |  |  |  |
| C/C(=N\NC(=O)c1cccc(F)c1)c1ccccc1O [Example 25] | 35.1% | 0% | 97.3% |  |  |  |  |
| C/C(=N\NC(=O)c1ccc(C(C)(C)C)cc1)c1ccccc1O [Example 55] | 43.9% | 0% | 95.5% |  |  |  |  |
| COc1cc([N+](=O)[O-])cc(/C=N/NC(=O)c2ccccc2)c1O [Example 155] | 32.0% | 1.9% | 78.3% |  |  |  |  |
| Cc1ccccc1C(=O)N/N=C/c1cc(Br)ccc1O [Example 158] | 84.7% | 6.2% | 96.9% |  |  |  |  |
| C/C(=N\NC(=O)c1cccc(Br)c1)c1ccccc1O [Example 63] | 40.4% | 0% | 96.7% |  |  |  |  |
| O=C(N/N=C/c1cc(Br)cc(Br)c1O)c1ccccc1Cl [Example 112] | 78.2% | 8.1% | 97.8% |  |  |  |  |
| Cc1cccc(C(=O)N/N=C/c2ccccc2O)c1 [Example 174] | 72.7% | 0% | 97.0% |  |  |  |  |
| O=C(N/N=C/c1cc(Br)cc(Br)c1O)c1ccc(OC(F)(F)F)cc1 [Example 109] | 89.1% | 27.8% | 98.3% |  |  |  |  |
| O=C(N/N=C/c1cc(Br)cc(Br)c1O)c1ccc(Cl)cc1 [Example 120] | 92.6% | 19.9% | 98.2% |  |  |  |  |
| O=C(N/N=C/c1ccc(Cl)cc1O)c1cccc(Cl)c1 [Example 391] |  |  |  | 92.0% | 6% | 96.9% |  |
| O=C(Cc1ccc(F)cc1)N/N=C/c1cc(Cl)cc(Cl)c1O [Example 126] | 73.0% | 13.2% | 92.4% |  |  |  |  |
| C/C(=N\NC(=O)c1ccccc1O)c1cc(C(F)(F)F)ccc1O [Example 538] |  |  |  | 44.0% | 12.4% | 96.5% |  |
| COc1ccccc1C(=O)N/N=C/c1cc(Br)cc(Br)c1O [Example 114] | 7.5% | 0% | 36.9% |  |  |  |  |
| O=C(N/N=C/c1cc(Cl)cc(Br)c1O)c1ccccc1F [Example 169] | 78.9% | 2.7% | 98.1% |  |  |  |  |
| CCOc1ccc(C(=O)N/N=C(\C)c2ccccc2O)cc1 [Example 18] | 38.6% | 0% | 96.9% |  |  |  |  |
| O=C(N/N=C/c1cc(Cl)cc(Cl)c1O)c1cccc(Br)c1 [Example 71] | 78.0% | 2.6% | 91.2% |  |  |  |  |
| Cc1ccc(C(=O)N/N=C/c2cc(Cl)cc(Cl)c2O)cc1 [Example 72] | 81.3% | 14.1% | 91.3% |  |  |  |  |
| Cc1cccc(C(=O)N/N=C/c2cc(Cl)cc(Br)c2O)c1 [Example 194] | 80.4% |  | 96.9% |  |  |  | 16.1% |
